Reference: ChEMBL document CHEMBL1201862, “PubChem BioAssay data set” (2004)
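Results reflect a 48-hour exposure of cells in 96-well plates to compound at five concentrations. GI50 = concentration required for 50% inhibition of growth.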 Active and inactive are the calls of the source. Cut-off read from the data, not from the text of the source: active = GI50 up to about 1.1 µM and inactive = higher.

Legend:
Test in all cases: NCI-60 cell line screen, 48 h
UO-31 = test system: UO-31
ACHN = test system: ACHN
CCRF-CEM = test system: CCRF-CEM
TK-10 = test system: TK-10
OVCAR-4 = test system: OVCAR-4
SK-MEL-2 = test system: SK-MEL-2
HL-60 = test system: HL-60
HT-29 = test system: HT-29
NCI-H226 = test system: NCI-H226
SF-295 = test system: SF-295
K562 = test system: K562
HOP-92 = test system: HOP-92
SNB-19 = test system: SNB-19
OVCAR-8 = test system: OVCAR-8
A549 = test system: A549
OVCAR-3 = test system: OVCAR-3

| Structure (SMILES) | GI50 (UO-31) | GI50 (ACHN) | GI50 (CCRF-CEM) | GI50 (TK-10) | GI50 (OVCAR-4) | GI50 (SK-MEL-2) | GI50 (HL-60) | GI50 (HT-29) | GI50 (NCI-H226) | GI50 (SF-295) | GI50 (K562) | GI50 (HOP-92) | GI50 (SNB-19) | GI50 (OVCAR-8) | GI50 (A549) | GI50 (OVCAR-3) |
| --- | --- | --- | --- | --- | --- | --- | --- | --- | --- | --- | --- | --- | --- | --- | --- | --- |
| CCOc1ccc(NCC2CC/C(=C\c3ccc(Cl)cc3)C2=O)cc1 (stereo not given) | > 42.5 µM (inactive) | > 40.6 µM (inactive) | 9.29 µM (inactive) | 34.6 µM (inactive) | 39.7 µM (inactive) | 22.4 µM (inactive) | 1.74 µM (inactive) | > 42.1 µM (inactive) | > 100 µM (inactive) | > 100 µM (inactive) | 6.81 µM (inactive) | 20.3 µM (inactive) | 49.1 µM (inactive) | > 38.3 µM (inactive) | > 100 µM (inactive) | > 36.9 µM (inactive) |
| O=C(CC1C(=O)c2ccccc2C1=C1C(=O)c2ccccc2C1=O)c1ccccc1 (stereo not given) | > 100 µM (inactive) | 80.4 µM (inactive) | 32 µM (inactive) | > 100 µM (inactive) | 77.6 µM (inactive) | > 100 µM (inactive) | 44.6 µM (inactive) | > 100 µM (inactive) | > 100 µM (inactive) | > 100 µM (inactive) | 30.3 µM (inactive) | 74.3 µM (inactive) | > 100 µM (inactive) | > 100 µM (inactive) | > 100 µM (inactive) | – |
| CCCCC(C(=O)C(=O)Nc1ccc(C)cc1C)C(=O)C(C)C (stereo not given) | > 100 µM (inactive) | > 100 µM (inactive) | – | > 100 µM (inactive) | > 100 µM (inactive) | > 100 µM (inactive) | > 100 µM (inactive) | > 100 µM (inactive) | > 100 µM (inactive) | > 100 µM (inactive) | > 100 µM (inactive) | > 100 µM (inactive) | > 100 µM (inactive) | > 100 µM (inactive) | > 100 µM (inactive) | > 100 µM (inactive) |
| COc1ccc(CCN(C)C2CCC(C#N)(c3ccc(OC)c(OC)c3)CC2)cc1OC (stereo not given) | > 100 µM (inactive) | > 100 µM (inactive) | > 100 µM (inactive) | > 100 µM (inactive) | > 100 µM (inactive) | > 100 µM (inactive) | 71 µM (inactive) | 34.4 µM (inactive) | > 100 µM (inactive) | > 100 µM (inactive) | 39.1 µM (inactive) | 38.9 µM (inactive) | > 100 µM (inactive) | > 100 µM (inactive) | > 100 µM (inactive) | > 100 µM (inactive) |
| C/C(CN1C(=O)c2ccccc2C1=O)=N\NS(=O)(=O)c1ccccc1 | > 100 µM (inactive) | > 100 µM (inactive) | > 100 µM (inactive) | > 100 µM (inactive) | > 100 µM (inactive) | > 100 µM (inactive) | > 100 µM (inactive) | > 100 µM (inactive) | > 100 µM (inactive) | > 100 µM (inactive) | > 100 µM (inactive) | > 100 µM (inactive) | > 100 µM (inactive) | > 100 µM (inactive) | > 100 µM (inactive) | > 100 µM (inactive) |
| COc1cc2cc3c4c(cc(OC)c(OC)c4c2cc1OC)CCN3C(=O)CCCC(=O)O | > 100 µM (inactive) | > 100 µM (inactive) | > 100 µM (inactive) | > 100 µM (inactive) | 34.8 µM (inactive) | > 100 µM (inactive) | > 100 µM (inactive) | > 100 µM (inactive) | > 100 µM (inactive) | > 100 µM (inactive) | > 100 µM (inactive) | > 100 µM (inactive) | > 100 µM (inactive) | – | > 100 µM (inactive) | > 100 µM (inactive) |
| O=C(Nc1ccc(Cl)cc1)C1C(=O)C(=O)N(c2ccc(Cl)cc2)C1=O (stereo not given) | 79.6 µM (inactive) | 89.9 µM (inactive) | 73.6 µM (inactive) | > 100 µM (inactive) | – | 38.6 µM (inactive) | > 100 µM (inactive) | 74.8 µM (inactive) | > 100 µM (inactive) | 93.8 µM (inactive) | 41.1 µM (inactive) | 29.1 µM (inactive) | 76.7 µM (inactive) | > 100 µM (inactive) | > 100 µM (inactive) | > 100 µM (inactive) |
| CC(=O)NC(CCCNC(=O)N(CCCl)N=O)C(=O)NCc1ccccc1 (stereo not given) | > 100 µM (inactive) | 38.9 µM (inactive) | 46.3 µM (inactive) | > 100 µM (inactive) | > 100 µM (inactive) | > 100 µM (inactive) | 24 µM (inactive) | > 100 µM (inactive) | > 100 µM (inactive) | 27.9 µM (inactive) | > 100 µM (inactive) | > 100 µM (inactive) | 22.6 µM (inactive) | > 100 µM (inactive) | 69.2 µM (inactive) | > 100 µM (inactive) |
| Cc1ccccc1C1SCc2nc3ccccc3n21 (stereo not given) | > 100 µM (inactive) | > 100 µM (inactive) | > 100 µM (inactive) | > 100 µM (inactive) | – | > 100 µM (inactive) | 1.92 µM (inactive) | – | 60.3 µM (inactive) | 48.9 µM (inactive) | 3.77 µM (inactive) | 2.43 µM (inactive) | > 100 µM (inactive) | > 100 µM (inactive) | > 100 µM (inactive) | > 100 µM (inactive) |
| CC12Oc3ccc4ccccc4c3CC1Cc1c(ccc3ccccc13)O2 (stereo not given) | > 100 µM (inactive) | > 100 µM (inactive) | – | 46.2 µM (inactive) | 26.5 µM (inactive) | 48 µM (inactive) | > 100 µM (inactive) | > 100 µM (inactive) | 23 µM (inactive) | 30 µM (inactive) | – | 0.124 µM (active) | 45.5 µM (inactive) | 49.7 µM (inactive) | > 100 µM (inactive) | – |
| COc1ccc(NC(=O)C2=CC(=O)c3ccc(O)cc3C2=O)c(OC)c1 | – | > 100 µM (inactive) | > 100 µM (inactive) | > 100 µM (inactive) | > 100 µM (inactive) | – | > 100 µM (inactive) | > 100 µM (inactive) | > 100 µM (inactive) | > 100 µM (inactive) | > 100 µM (inactive) | > 100 µM (inactive) | > 100 µM (inactive) | > 100 µM (inactive) | > 100 µM (inactive) | > 100 µM (inactive) |
| O=C1CCC2(c3ccc(F)cc3)Nc3ccccc3N12 (stereo not given) | > 100 µM (inactive) | > 100 µM (inactive) | > 100 µM (inactive) | > 100 µM (inactive) | > 100 µM (inactive) | > 100 µM (inactive) | > 100 µM (inactive) | > 100 µM (inactive) | > 100 µM (inactive) | > 100 µM (inactive) | > 100 µM (inactive) | > 100 µM (inactive) | – | > 100 µM (inactive) | > 100 µM (inactive) | > 100 µM (inactive) |
| COc1cc(CC2c3cc(OC)c(OC)cc3CCN2C)c(C(=O)O)cc1OC (stereo not given) | > 100 µM (inactive) | > 100 µM (inactive) | > 100 µM (inactive) | > 100 µM (inactive) | – | > 100 µM (inactive) | > 100 µM (inactive) | > 100 µM (inactive) | > 100 µM (inactive) | > 100 µM (inactive) | > 100 µM (inactive) | > 100 µM (inactive) | > 100 µM (inactive) | > 100 µM (inactive) | > 100 µM (inactive) | > 100 µM (inactive) |
